{"source": "PubChem BioAssay (NCI)", "test_in_all_cases": "inhibition of tumour cell growth, NCI panel, 384-well format", "key": {"LOX IMVI melanoma": {"test_system": "LOX IMVI melanoma"}, "MDA-MB-468 breast": {"test_system": "MDA-MB-468 breast"}, "TK-10 renal": {"test_system": "TK-10 renal"}, "T-47D breast": {"test_system": "T-47D breast"}, "KM12 colon": {"test_system": "KM12 colon"}, "IGROV1 ovarian": {"test_system": "IGROV1 ovarian"}, "A498 renal": {"test_system": "A498 renal"}, "CAKI-1 renal": {"test_system": "CAKI-1 renal"}, "NCI-H23 lung": {"test_system": "NCI-H23 lung"}, "SNB-19 CNS": {"test_system": "SNB-19 CNS"}, "OVCAR-8 ovarian": {"test_system": "OVCAR-8 ovarian"}, "HOP-92 NSCLC": {"test_system": "HOP-92 NSCLC"}, "HS 578T breast": {"test_system": "HS 578T breast"}}, "note": "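Here, GI50 denotes the concentration required for 50% inhibition of growth. TGI is the concentration that stops growth completely.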"}
{"smiles": "CNCc1ccc(C)c(NC(=O)c2ccc(Nc3nc(-c4ccccc4)c4ccccc4n3)cc2)c1", "values": [{"measurement": "GI50", "setting": "LOX IMVI melanoma", "result": 1.55, "unit": "µM"}, {"measurement": "TGI", "setting": "LOX IMVI melanoma", "result": 2.91, "unit": "µM"}, {"measurement": "GI50", "setting": "MDA-MB-468 breast", "result": 1.71, "unit": "µM"}, {"measurement": "TGI", "setting": "MDA-MB-468 breast", "result": 3.09, "unit": "µM"}, {"measurement": "GI50", "setting": "TK-10 renal", "result": 1.81, "unit": "µM"}, {"measurement": "TGI", "setting": "TK-10 renal", "result": 3.29, "unit": "µM"}, {"measurement": "GI50", "setting": "T-47D breast", "result": 1.45, "unit": "µM"}, {"measurement": "TGI", "setting": "T-47D breast", "result": 2.78, "unit": "µM"}, {"measurement": "GI50", "setting": "KM12 colon", "result": 1.42, "unit": "µM"}, {"measurement": "TGI", "setting": "KM12 colon", "result": 2.75, "unit": "µM"}, {"measurement": "GI50", "setting": "IGROV1 ovarian", "result": 1.81, "unit": "µM"}, {"measurement": "TGI", "setting": "IGROV1 ovarian", "result": 3.6, "unit": "µM"}, {"measurement": "GI50", "setting": "A498 renal", "result": 1.63, "unit": "µM"}, {"measurement": "TGI", "setting": "A498 renal", "result": 3, "unit": "µM"}, {"measurement": "GI50", "setting": "CAKI-1 renal", "result": 0.42, "unit": "µM"}, {"measurement": "TGI", "setting": "CAKI-1 renal", "result": 1.36, "unit": "µM"}, {"measurement": "GI50", "setting": "NCI-H23 lung", "result": 1.83, "unit": "µM"}, {"measurement": "TGI", "setting": "NCI-H23 lung", "result": 3.27, "unit": "µM"}, {"measurement": "GI50", "setting": "SNB-19 CNS", "result": 1.86, "unit": "µM"}, {"measurement": "TGI", "setting": "SNB-19 CNS", "result": 3.31, "unit": "µM"}, {"measurement": "GI50", "setting": "OVCAR-8 ovarian", "result": 1.64, "unit": "µM"}, {"measurement": "TGI", "setting": "OVCAR-8 ovarian", "result": 3.02, "unit": "µM"}, {"measurement": "GI50", "setting": "HOP-92 NSCLC", "result": 1.79, "unit": "µM"}, {"measurement": "TGI", "setting": "HOP-92 NSCLC", "result": 3.18, "unit": "µM"}, {"measurement": "GI50", "setting": "HS 578T breast", "result": 1.93, "unit": "µM"}, {"measurement": "TGI", "setting": "HS 578T breast", "result": 3.34, "unit": "µM"}]}
